Experimental findings from patent publication US11434242B2, “Dopamine-b-hydroxylase inhibitors” (BIAL-PORTELA & Cª, S.A., priority 2017, dated 2022) are described below.

This test concerns the target T1, Dopamine beta hydroxylase (Homo sapiens, UniProt P09172).
T1 construct: 125 μl of plasma; tissue Instituto Português do Sangue Transplantação; host or cells: human plasma from healthy donors
T1 sequence (P09172 40-617 limits assumed): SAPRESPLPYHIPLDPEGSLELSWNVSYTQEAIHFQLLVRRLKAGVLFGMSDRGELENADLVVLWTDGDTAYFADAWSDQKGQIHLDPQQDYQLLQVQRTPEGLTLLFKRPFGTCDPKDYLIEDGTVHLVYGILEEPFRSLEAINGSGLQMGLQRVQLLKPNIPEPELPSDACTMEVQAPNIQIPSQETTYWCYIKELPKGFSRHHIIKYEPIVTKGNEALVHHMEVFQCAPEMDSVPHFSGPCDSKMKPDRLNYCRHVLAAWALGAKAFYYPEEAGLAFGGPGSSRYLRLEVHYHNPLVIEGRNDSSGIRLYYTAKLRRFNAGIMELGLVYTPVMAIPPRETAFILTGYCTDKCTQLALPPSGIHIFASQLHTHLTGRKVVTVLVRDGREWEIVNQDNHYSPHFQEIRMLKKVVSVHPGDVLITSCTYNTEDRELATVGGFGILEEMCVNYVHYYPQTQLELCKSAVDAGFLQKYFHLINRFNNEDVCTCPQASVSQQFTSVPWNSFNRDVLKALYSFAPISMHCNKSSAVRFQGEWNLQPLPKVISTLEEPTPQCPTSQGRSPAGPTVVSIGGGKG
Nature of the test: Dopamine beta hydroxylase activity in human plasma. Format: biochemical. The settings on record: for Plasma (0.01 μM), activity in % of control: inhibitor 0.01 μM; for Plasma (0.1 μM), activity in % of control: inhibitor 0.1 μM. In outline:
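Healthy-donor human plasma pre-incubated 10 min at 37° C with compound at final 10, 100 or 1000 nM in pH 5.0 acetate buffer with ascorbate, fumarate, pargyline, N-ethylmaleimide, catalase and copper sulfate. Tyramine substrate then added for 45 min; octopamine formed was isolated by SCX cartridge, periodate-converted and read at 330 nm; activity given as % control.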

For the compound `Cn1c(CC(=O)N[C@@H]2CCCOC2)c2n(c1=S)C[C@@]1(c3c(F)ccc(Cl)c3F)C[C@@H]21` [Example 415, 2-((5aS,6aR)-5a-(3-chloro-2,6-difluorophenyl)-2-methyl-3-thioxo-2,3,5,5a,6,6a-hexahydrocyclopropa[3,4]pyrrolo[1,2-c]imidazol-1-yl)-N—((R)-tetrahydro-2H-pyran-3-yl)acetamide], the “Plasma (0.01 μM), activity in % of control” value is listed as 14.9 % of control and the “Plasma (0.1 μM), activity in % of control” value is given as 2.1 % of control.
On to `Cn1c(CC(=O)NC2CCOCC2)c2n(c1=S)C[C@H](c1c(F)ccc(F)c1F)C2` [Example 416, (S)-2-(2-methyl-3-thioxo-6-(2,3,6-trifluorophenyl)-2,5,6,7-tetrahydro-3H-pyrrolo[1,2-c]imidazol-1-yl)-N-(tetrahydro-2H-pyran-4-yl)acetamide], for which the “Plasma (0.01 μM), activity in % of control” value was 75.3 % of control and the “Plasma (0.1 μM), activity in % of control” value was 25.4 % of control.
Consider `Cn1c(CC(=O)N[C@H]2CCOC2)c2n(c1=S)C[C@H](c1c(F)ccc(F)c1F)C2` [Example 417, 2-((S)-2-methyl-3-thioxo-6-(2,3,6-trifluorophenyl)-2,5,6,7-tetrahydro-3H-pyrrolo[1,2-c]imidazol-1-yl)-N—((S)-tetrahydrofuran-3-yl)acetamide], for which the “Plasma (0.01 μM), activity in % of control” value was 87.7 % of control and the “Plasma (0.1 μM), activity in % of control” value is listed as 60.5 % of control.
Consider `Cn1c(CC(=O)N[C@H]2CCOC2)c2n(c1=S)C[C@@]1(c3c(F)ccc(Cl)c3F)C[C@@H]21` [Example 418, 2-((5aS,6aR)-5a-(3-chloro-2,6-difluorophenyl)-2-methyl-3-thioxo-2,3,5,5a,6,6a-hexahydrocyclopropa[3,4]pyrrolo[1,2-c]imidazol-1-yl)-N—((S)-tetrahydrofuran-3-yl)acetamide], for which the “Plasma (0.01 μM), activity in % of control” value is reported as 27.7 % of control and the “Plasma (0.1 μM), activity in % of control” value is reported as 3.0 % of control.
As to `Cn1c(CC(=O)N2CCOCC2)c2n(c1=S)C[C@H](c1cc(F)cc(F)c1)C2` [Example 419, (S)-2-(6-(3,5-difluorophenyl)-2-methyl-3-thioxo-2,5,6,7-tetrahydro-3H-pyrrolo[1,2-c]imidazol-1-yl)-1-morpholinoethan-1-one], the “Plasma (0.01 μM), activity in % of control” value is recorded as 92.5 % of control and the “Plasma (0.1 μM), activity in % of control” value is 61.0 % of control.
As to `CN(C(=O)Cc1[nH]c(=S)n2c1C[C@H](c1c(F)ccc(F)c1F)C2)C1COC1` [Example 420, (R)—N-methyl-N-(oxetan-3-yl)-2-(3-thioxo-6-(2,3,6-trifluorophenyl)-2,5,6,7-tetrahydro-3H-pyrrolo[1,2-c]imidazol-1-yl)acetamide], the “Plasma (0.01 μM), activity in % of control” value was 87.8 % of control and the “Plasma (0.1 μM), activity in % of control” value is given as 48.5 % of control.
As for `Cn1c(CC(=O)N2CCOCC2)c2n(c1=S)C[C@@]1(c3c(F)ccc(Cl)c3F)C[C@@H]21` [Example 421, 2-((5aS,6aR)-5a-(3-chloro-2,6-difluorophenyl)-2-methyl-3-thioxo-2,3,5,5a,6,6a-hexahydrocyclopropa[3,4]pyrrolo[1,2-c]imidazol-1-yl)-1-morpholinoethan-1-one], the “Plasma (0.01 μM), activity in % of control” value is listed as 26.1 % of control and the “Plasma (0.1 μM), activity in % of control” value is 5.8 % of control.
Taken in the same sequence, the figures for `Cn1c(CC(=O)N2CCOCC2)c2n(c1=S)C[C@@]1(c3cc(Cl)ccc3F)C[C@@H]21` [Example 422, 2-((5aS,6aR)-5a-(5-chloro-2-fluorophenyl)-2-methyl-3-thioxo-2,3,5,5a,6,6a-hexahydrocyclopropa[3,4]pyrrolo[1,2-c]imidazol-1-yl)-1-morpholinoethan-1-one] were 68.1 % of control and 23.2 % of control.
For the compound `Cn1c(CC(=O)NC2CCOCC2)c2n(c1=S)C[C@@]1(c3c(F)ccc(Cl)c3F)C[C@@H]21` [Example 423, 2-((5aS,6aR)-5a-(3-chloro-2,6-difluorophenyl)-2-methyl-3-thioxo-2,3,5,5a,6,6a-hexahydrocyclopropa[3,4]pyrrolo[1,2-c]imidazol-1-yl)-N-(tetrahydro-2H-pyran-4-yl)acetamide], the “Plasma (0.01 μM), activity in % of control” value was 18.5 % of control and the “Plasma (0.1 μM), activity in % of control” value is on record as 1.7 % of control.
For `Cn1c(CC(=O)O)c2n(c1=S)C[C@H](c1c(F)ccc(Cl)c1F)C2` [Example 424, (S)-2-(6-(3-chloro-2,6-difluorophenyl)-2-methyl-3-thioxo-2,5,6,7-tetrahydro-3H-pyrrolo[1,2-c]imidazol-1-yl)acetic acid], the “Plasma (0.01 μM), activity in % of control” value is reported as 59.5 % of control and the “Plasma (0.1 μM), activity in % of control” value was 20.6 % of control.
The matching figures for `Cn1c(CC(=O)N[C@@H]2CCOC2)c2n(c1=S)C[C@H](c1cc(F)cc(F)c1)C2` [Example 425, 2-((S)-6-(3,5-difluorophenyl)-2-methyl-3-thioxo-2,5,6,7-tetrahydro-3H-pyrrolo[1,2-c]imidazol-1-yl)-N—((R)-tetrahydrofuran-3-yl)acetamide]: 78.6 % of control and 52.0 % of control.
As for `Cn1c(CC(=O)N[C@H]2CCOC2)c2n(c1=S)C[C@H](c1cc(F)cc(F)c1)C2` [Example 426, 2-((S)-6-(3,5-difluorophenyl)-2-methyl-3-thioxo-2,5,6,7-tetrahydro-3H-pyrrolo[1,2-c]imidazol-1-yl)-N—((S)-tetrahydrofuran-3-yl)acetamide], the “Plasma (0.01 μM), activity in % of control” value is 83.5 % of control and the “Plasma (0.1 μM), activity in % of control” value is 66.3 % of control.
The matching figures for `Cn1c(CC(=O)NCC2CCOCC2)c2n(c1=S)C[C@H](c1c(F)ccc(F)c1F)C2` [Example 427, (S)-2-(2-methyl-3-thioxo-6-(2,3,6-trifluorophenyl)-2,5,6,7-tetrahydro-3H-pyrrolo[1,2-c]imidazol-1-yl)-N-((tetrahydro-2H-pyran-4-yl)methyl)acetamide]: 78.1 % of control and 34.2 % of control.
As for `Cn1c(CC(=O)NCC2CCOCC2)c2n(c1=S)C[C@H](c1cc(F)cc(F)c1)C2` [Example 428, (S)-2-(6-(3,5-difluorophenyl)-2-methyl-3-thioxo-2,5,6,7-tetrahydro-3H-pyrrolo[1,2-c]imidazol-1-yl)-N-((tetrahydro-2H-pyran-4-yl)methyl)acetamide], the “Plasma (0.01 μM), activity in % of control” value is 68.2 % of control and the “Plasma (0.1 μM), activity in % of control” value is listed as 32.3 % of control.
Taken in the same sequence, the figures for `CN(C(=O)Cc1c2n(c(=S)n1C)C[C@H](c1c(F)ccc(Cl)c1F)C2)C1COC1` [Example 429, (S)-2-(6-(3-chloro-2,6-difluorophenyl)-2-methyl-3-thioxo-2,5,6,7-tetrahydro-3H-pyrrolo[1,2-c]imidazol-1-yl)-N-methyl-N-(oxetan-3-yl)acetamide] were 37.8 % of control and 5.8 % of control.
As for `CN(Cc1cnn(C)c1)C(=O)Cc1c2n(c(=S)n1C)C[C@H](c1c(F)ccc(Cl)c1F)C2` [Example 430, (S)-2-(6-(3-chloro-2,6-difluorophenyl)-2-methyl-3-thioxo-2,5,6,7-tetrahydro-3H-pyrrolo[1,2-c]imidazol-1-yl)-N-methyl-N-((1-methyl-1H-pyrazol-4-yl)methyl)acetamide], the “Plasma (0.01 μM), activity in % of control” value is listed as 25.3 % of control and the “Plasma (0.1 μM), activity in % of control” value is given as 2.2 % of control.
For `CN(C(=O)Cc1c2n(c(=S)n1C)C[C@@]1(c3cc(Cl)ccc3F)C[C@@H]21)C1COC1` [Example 431, 2-((5aS,6aR)-5a-(5-chloro-2-fluorophenyl)-2-methyl-3-thioxo-2,3,5,5a,6,6a-hexahydrocyclopropa[3,4]pyrrolo[1,2-c]imidazol-1-yl)-N-methyl-N-(oxetan-3-yl)acetamide], the “Plasma (0.01 μM), activity in % of control” value was 54.3 % of control and the “Plasma (0.1 μM), activity in % of control” value was 10.1 % of control.
`Cn1c(CC(=O)NC2COC2)c2n(c1=S)C[C@H](c1c(F)ccc(F)c1F)C2` [Example 432, (S)-2-(2-methyl-3-thioxo-6-(2,3,6-trifluorophenyl)-2,5,6,7-tetrahydro-3H-pyrrolo[1,2-c]imidazol-1-yl)-N-(oxetan-3-yl)acetamide]: the “Plasma (0.01 μM), activity in % of control” value is 79.7 % of control and the “Plasma (0.1 μM), activity in % of control” value is recorded as 43.7 % of control.
Turning to `Cn1c(CC(=O)NC2COC2)c2n(c1=S)C[C@@]1(c3cc(Cl)ccc3F)C[C@@H]21` [Example 433, 2-((5aS,6aR)-5a-(5-chloro-2-fluorophenyl)-2-methyl-3-thioxo-2,3,5,5a,6,6a-hexahydrocyclopropa[3,4]pyrrolo[1,2-c]imidazol-1-yl)-N-(oxetan-3-yl)acetamide], the “Plasma (0.01 μM), activity in % of control” value is on record as 56.9 % of control and the “Plasma (0.1 μM), activity in % of control” value was 9.2 % of control.
